According to publication PMC5218480 (PLoS ONE, 2017):

Test system: MV-4-11 cells
Experiment: Gene expression microarray analysis (Affymetrix PrimeView) and GSEA
Assay type: cell-based, human
Design: RFU PODN (11730768_x_at) / Fold change /veh PODN (11730768_x_at) / RFU LINC00158 (11744669_a_at) / Fold change /veh LINC00158 (11744669_a_at) / RFU DUSP10 (11751237_a_at) / Fold change /veh DUSP10 (11751237_a_at) / RFU ID3 (11757404_x_at) / Fold change /veh ID3 (11757404_x_at) / RFU PLEKHG5 (11737974_s_at) / Fold change /veh PLEKHG5 (11737974_s_at) / RFU LRRC4B (11730491_at) / Fold change /veh LRRC4B (11730491_at) / RFU GIMAP4 (11747438_a_at) / Fold change /veh GIMAP4 (11747438_a_at) / RFU KRT8 (11758183_x_at) / Fold change /veh KRT8 (11758183_x_at) / RFU CNN1 (11734310_a_at) / Fold change /veh CNN1 (11734310_a_at) / RFU VPS37D (11726825_at) / Fold change /veh VPS37D (11726825_at) / RFU C10orf10 (11716522_x_at) / Fold change /veh C10orf10 (11716522_x_at) / RFU KIR2DL2 /// KIR2DL4 /// KIR2DL5A /// KIR2DL5B /// KIR2DS1 /// KIR2DS2 /// KIR2DS3 /// KIR2DS4 /// KIR3DL3 /// KIR3DL3 /// KIR3DS1 (11738374_at) / Fold change /veh KIR2DL2 /// KIR2DL4 /// KIR2DL5A /// KIR2DL5B /// KIR2DS1 /// KIR2DS2 /// KIR2DS3 /// KIR2DS4 /// KIR3DL3 /// KIR3DL3 /// KIR3DS1 (11738374_at) / RFU C1QL1 (11718748_at) / Fold change /veh C1QL1 (11718748_at) / RFU TMPRSS4 (11747572_a_at) / Fold change /veh TMPRSS4 (11747572_a_at) / RFU HAMP (11756126_x_at) / Fold change /veh HAMP (11756126_x_at) / RFU RNFT2 (11725882_a_at) / Fold change /veh RNFT2 (11725882_a_at) / RFU NR4A2 (11747474_a_at) / Fold change /veh NR4A2 (11747474_a_at) / RFU ABCC12 (11746883_a_at) / Fold change /veh ABCC12 (11746883_a_at) / RFU TMEM136 (11760407_x_at) / Fold change /veh TMEM136 (11760407_x_at) / RFU CLDN22 /// WWC2 (11732394_at) / Fold change /veh CLDN22 /// WWC2 (11732394_at) / RFU HLA-DPB1 (11760878_x_at) / Fold change /veh HLA-DPB1 (11760878_x_at) / RFU SPINT1 (11716480_a_at) / Fold change /veh SPINT1 (11716480_a_at) / RFU GAP43 (11754022_s_at) / Fold change /veh GAP43 (11754022_s_at) / RFU A4GNT (11735810_at) / Fold change /veh A4GNT (11735810_at) / RFU PRB3 (11715151_x_at) / Fold change /veh PRB3 (11715151_x_at) / RFU TUBB4B (11761932_at) / Fold change /veh TUBB4B (11761932_at) / RFU CAPN14 (11732068_a_at) / Fold change /veh CAPN14 (11732068_a_at) / RFU TMCC2 (11721928_a_at) / Fold change /veh TMCC2 (11721928_a_at) / RFU IRGQ (11745062_a_at) / Fold change /veh IRGQ (11745062_a_at) / RFU FAM174B (11720279_a_at) / Fold change /veh FAM174B (11720279_a_at) / RFU TMPRSS4 (11748680_a_at) / Fold change /veh TMPRSS4 (11748680_a_at) / RFU FAM212B (11763350_a_at) / Fold change /veh FAM212B (11763350_a_at) / RFU PLEKHG5 (11743358_a_at) / Fold change /veh PLEKHG5 (11743358_a_at) / RFU ZSCAN30 (11745921_a_at) / Fold change /veh ZSCAN30 (11745921_a_at) / RFU CMKLR1 (11741424_a_at) / Fold change /veh CMKLR1 (11741424_a_at) / RFU LOC101060620 /// MAPK8IP1 (11723275_at) / Fold change /veh LOC101060620 /// MAPK8IP1 (11723275_at) / RFU SPTSSB (11747773_x_at) / Fold change /veh SPTSSB (11747773_x_at) / RFU PRSS12 (11739890_at) / Fold change /veh PRSS12 (11739890_at) / RFU BIN1 (11741810_x_at) / Fold change /veh BIN1 (11741810_x_at) / RFU WNT11 (11732464_a_at) / Fold change /veh WNT11 (11732464_a_at) / RFU C10orf10 (11716521_a_at) / Fold change /veh C10orf10 (11716521_a_at) / RFU C5orf56 (11738089_at) / Fold change /veh C5orf56 (11738089_at) / RFU CYB561 (11721691_x_at) / Fold change /veh CYB561 (11721691_x_at) / RFU ANKRD19P (11752326_a_at) / Fold change /veh ANKRD19P (11752326_a_at) / RFU OR2T12 /// OR2T33 /// OR2T8 (11738714_s_at) / Fold change /veh OR2T12 /// OR2T33 /// OR2T8 (11738714_s_at) / RFU VCAN (11748164_a_at) / Fold change /veh VCAN (11748164_a_at) / RFU JSRP1 (11732532_at) / Fold change /veh JSRP1 (11732532_at) / RFU KRTAP10-11 (11738290_x_at) / Fold change /veh KRTAP10-11 (11738290_x_at) / RFU MYO3A (11730013_a_at) / Fold change /veh MYO3A (11730013_a_at) / RFU EBF3 (11725865_a_at) / Fold change /veh EBF3 (11725865_a_at) / RFU CAMK2N1 (11719241_x_at) / Fold change /veh CAMK2N1 (11719241_x_at) / RFU C5orf56 (11738088_a_at) / Fold change /veh C5orf56 (11738088_a_at) / RFU OLFML3 (11715873_a_at) / Fold change /veh OLFML3 (11715873_a_at) / RFU LOC100653217 /// NTM (11731650_a_at) / Fold change /veh LOC100653217 /// NTM (11731650_a_at) / RFU MAPK11 (11762145_a_at) / Fold change /veh MAPK11 (11762145_a_at) / RFU FIZ1 (11724087_x_at) / Fold change /veh FIZ1 (11724087_x_at) / RFU OASL (11726364_x_at) / Fold change /veh OASL (11726364_x_at) / RFU SOX15 (11748057_x_at) / Fold change /veh SOX15 (11748057_x_at) / RFU CD79A (11719716_a_at) / Fold change /veh CD79A (11719716_a_at) / RFU HIST1H1D (11736915_at) / Fold change /veh HIST1H1D (11736915_at) / RFU CASKIN2 (11723855_a_at) / Fold change /veh CASKIN2 (11723855_a_at) / RFU LOC730098 (11760151_x_at) / Fold change /veh LOC730098 (11760151_x_at) / RFU OR4N2 (11742367_at) / Fold change /veh OR4N2 (11742367_at) / RFU PRRT2 (11749266_a_at) / Fold change /veh PRRT2 (11749266_a_at) / RFU SNX32 (11753110_a_at) / Fold change /veh SNX32 (11753110_a_at) / RFU CDHR5 (11726645_a_at) / Fold change /veh CDHR5 (11726645_a_at) / RFU RCAN1 (11760418_a_at) / Fold change /veh RCAN1 (11760418_a_at) / RFU FAM167A (11723789_a_at) / Fold change /veh FAM167A (11723789_a_at) / RFU FAM26E (11764081_at) / Fold change /veh FAM26E (11764081_at) / RFU ISYNA1 (11749810_s_at) / Fold change /veh ISYNA1 (11749810_s_at) / RFU ACY1 (11761880_at) / Fold change /veh ACY1 (11761880_at) / RFU 11764098_at / Fold change /veh 11764098_at / RFU SAMD14 (11745864_x_at) / Fold change /veh SAMD14 (11745864_x_at) / RFU NPB (11741838_a_at) / Fold change /veh NPB (11741838_a_at) / RFU TMPRSS6 (11731388_a_at) / Fold change /veh TMPRSS6 (11731388_a_at) / RFU KRTAP10-2 (11738614_at) / Fold change /veh KRTAP10-2 (11738614_at) / RFU ARHGAP8 /// PRR5-ARHGAP8 (11727945_x_at) / Fold change /veh ARHGAP8 /// PRR5-ARHGAP8 (11727945_x_at) / RFU KRTAP5-7 /// NADSYN1 (11734609_at) / Fold change /veh KRTAP5-7 /// NADSYN1 (11734609_at) / RFU RASL12 (11751679_a_at) / Fold change /veh RASL12 (11751679_a_at) / RFU CDKN2B (11736163_a_at) / Fold change /veh CDKN2B (11736163_a_at) / RFU PRF1 (11729649_at) / Fold change /veh PRF1 (11729649_at) / RFU, ZNF638 /// ZNF638-IT1 / Fold change vs veh, ZNF638 /// ZNF638-IT1 / RFU, PANK3 / Fold change vs veh, PANK3 / RFU, SH3YL1 / Fold change vs veh, SH3YL1 / RFU, ZEB2 / Fold change vs veh, ZEB2 / RFU, NRIP1 / Fold change vs veh, NRIP1 / RFU, PTTG1IP / Fold change vs veh, PTTG1IP / RFU, CAPN2 / Fold change vs veh, CAPN2 / RFU, MED14 / Fold change vs veh, MED14 / RFU, SNORA58 / Fold change vs veh, SNORA58 / RFU, C1orf63 / Fold change vs veh, C1orf63 / RFU, LRRFIP1 / Fold change vs veh, LRRFIP1 / RFU, NDUFAF7 / Fold change vs veh, NDUFAF7 / RFU, SLC12A2 / Fold change vs veh, SLC12A2 / RFU, IBTK / Fold change vs veh, IBTK / RFU, ESF1 / Fold change vs veh, ESF1 / Fold change vs veh, TMEM50B / RFU, TAOK1 / Fold change vs veh, TAOK1 / RFU, ACBD3 / Fold change vs veh, ACBD3 / RFU, TMA16 / Fold change vs veh, TMA16 / RFU, RWDD3 / Fold change vs veh, RWDD3 / RFU, BCAT1 / Fold change vs veh, BCAT1 / RFU, EDEM3 / Fold change vs veh, EDEM3 / RFU, TMEM33 / Fold change vs veh, TMEM33 / RFU, WDR75 / Fold change vs veh, WDR75 / RFU, AHCTF1 / Fold change vs veh, AHCTF1 / RFU, TFRC / Fold change vs veh, TFRC / RFU, ZDHHC17 / Fold change vs veh, ZDHHC17 / RFU, NOM1 / Fold change vs veh, NOM1 / RFU, ARL8B / Fold change vs veh, ARL8B / RFU, ZBTB11 / Fold change vs veh, ZBTB11 / RFU, TAMM41 / Fold change vs veh, TAMM41 / RFU, KIAA1704 /// LOC100996395 / Fold change vs veh, KIAA1704 /// LOC100996395 / RFU, ING1 / Fold change vs veh, ING1 / RFU, TRMT61B / Fold change vs veh, TRMT61B / RFU, FUBP3 / Fold change vs veh, FUBP3 / RFU, TP53 / Fold change vs veh, TP53 / RFU, TNKS2 / Fold change vs veh, TNKS2 / RFU, ZFP14 / Fold change vs veh, ZFP14 / RFU, ACTR2 / Fold change vs veh, ACTR2 / RFU, PPP3R1 / Fold change vs veh, PPP3R1 / RFU, PIK3R1 / Fold change vs veh, PIK3R1 / RFU, HNRNPA1 / Fold change vs veh, HNRNPA1 / RFU, RNF170 / Fold change vs veh, RNF170 / RFU, ZNF28 / Fold change vs veh, ZNF28 / RFU, RNGTT / Fold change vs veh, RNGTT / RFU, OGT / Fold change vs veh, OGT / RFU, BRD1 / Fold change vs veh, BRD1 / RFU, MARS / Fold change vs veh, MARS / RFU, ZNF655 / Fold change vs veh, ZNF655 / RFU, FAHD1 / Fold change vs veh, FAHD1 / RFU, BDP1 / Fold change vs veh, BDP1 / RFU, LRRCC1 / Fold change vs veh, LRRCC1 / RFU, ARID1A / Fold change vs veh, ARID1A / RFU, ZNF146 / Fold change vs veh, ZNF146 / RFU, ZNF330 / Fold change vs veh, ZNF330 / RFU, GPN3 / Fold change vs veh, GPN3 / RFU, C9orf123 / Fold change vs veh, C9orf123 / RFU, N4BP2L2 / Fold change vs veh, N4BP2L2 / RFU, ARFIP1 / Fold change vs veh, ARFIP1 / RFU, FAM179B / Fold change vs veh, FAM179B / RFU, BCL10 / Fold change vs veh, BCL10 / RFU, UHRF1BP1L / Fold change vs veh, UHRF1BP1L / RFU, BET1 / Fold change vs veh, BET1 / RFU, CNOT2 / Fold change vs veh, CNOT2 / RFU, ZNF268 / Fold change vs veh, ZNF268 / Fold change vs veh, ZNF507 / RFU, DGCR2 / Fold change vs veh, DGCR2 / RFU, WDSUB1 / Fold change vs veh, WDSUB1 / Fold change vs veh, HSP90B1 /// MIR3652 / RFU, ADSS / Fold change vs veh, ADSS / RFU, GK / Fold change vs veh, GK / RFU, ZNF148 / Fold change vs veh, ZNF148 / RFU, TAF9 / Fold change vs veh, TAF9 / RFU, SLC1A5 / Fold change vs veh, SLC1A5 / RFU, SLMO2 / Fold change vs veh, SLMO2 / RFU, ABCC4 / Fold change vs veh, ABCC4 / RFU, LOC101060439 /// RAP1B / Fold change vs veh, LOC101060439 /// RAP1B / RFU, RFX7 / Fold change vs veh, RFX7 / RFU, GTPBP10 / Fold change vs veh, GTPBP10 / RFU, CNEP1R1 / Fold change vs veh, CNEP1R1 / RFU, BIVM-ERCC5 /// ERCC5 / Fold change vs veh, BIVM-ERCC5 /// ERCC5 / RFU, ILF3 / Fold change vs veh, ILF3 / RFU 11762660_at / Fold change /veh 11762660_at / RFU VCAN (11757783_s_at) / Fold change /veh VCAN (11757783_s_at) / RFU DDX43 (11728927_at) / Fold change /veh DDX43 (11728927_at) / RFU KRT8 (11758188_x_at) / Fold change /veh KRT8 (11758188_x_at) / RFU NKD1 (11759106_at) / Fold change /veh NKD1 (11759106_at) / RFU SRD5A1 (11742802_a_at) / Fold change /veh SRD5A1 (11742802_a_at) / RFU TPSAB1 /// TPSB2 (11721975_s_at) / Fold change /veh TPSAB1 /// TPSB2 (11721975_s_at) / RFU GSTM3 (11746129_a_at) / Fold change /veh GSTM3 (11746129_a_at) / RFU IL23R (11737362_x_at) / Fold change /veh IL23R (11737362_x_at) / RFU TMEM51 (11727254_a_at) / Fold change /veh TMEM51 (11727254_a_at) / RFU PIWIL2 (11732686_x_at) / Fold change /veh PIWIL2 (11732686_x_at) / RFU ORM1 (11744905_x_at) / Fold change /veh ORM1 (11744905_x_at) / RFU CCDC152 (11743942_at) / Fold change /veh CCDC152 (11743942_at) / RFU ECM1 (11717891_a_at) / Fold change /veh ECM1 (11717891_a_at) / RFU IL23R (11748794_a_at) / Fold change /veh IL23R (11748794_a_at) / RFU TNFAIP8L3 (11732012_x_at) / Fold change /veh TNFAIP8L3 (11732012_x_at) / RFU MBOAT4 (11741988_at) / Fold change /veh MBOAT4 (11741988_at) / RFU 11764193_at / Fold change /veh 11764193_at / RFU TMEM53 (11763286_at) / Fold change /veh TMEM53 (11763286_at) / RFU MAGEB2 (11727129_at) / Fold change /veh MAGEB2 (11727129_at) / RFU TMEM200A (11744735_a_at) / Fold change /veh TMEM200A (11744735_a_at) / RFU CCDC152 (11751479_a_at) / Fold change /veh CCDC152 (11751479_a_at) / RFU FAM211A (11726209_a_at) / Fold change /veh FAM211A (11726209_a_at) / RFU RGS16 (11746705_a_at) / Fold change /veh RGS16 (11746705_a_at) / RFU VCAN (11755009_s_at) / Fold change /veh VCAN (11755009_s_at) / RFU RHOB (11743442_s_at) / Fold change /veh RHOB (11743442_s_at) / RFU RGS16 (11720943_a_at) / Fold change /veh RGS16 (11720943_a_at) / RFU RGS16 (11720944_at) / Fold change /veh RGS16 (11720944_at) / RFU, VPS4B / Fold change vs veh, VPS4B / RFU, CREB1 / Fold change vs veh, CREB1 / RFU, DNAJC13 / Fold change vs veh, DNAJC13 / RFU, GNAQ / Fold change vs veh, GNAQ / RFU, CDK5R1 / Fold change vs veh, CDK5R1 / RFU, ZRANB3 / Fold change vs veh, ZRANB3 / RFU, CUL4A / Fold change vs veh, CUL4A / RFU, CCNY / Fold change vs veh, CCNY / RFU, UFL1 / Fold change vs veh, UFL1 / RFU, COG3 / Fold change vs veh, COG3 / RFU, DIAPH2 / Fold change vs veh, DIAPH2 / RFU, SKA2 / Fold change vs veh, SKA2 / RFU, AFF3 / Fold change vs veh, AFF3 / RFU, LMF1 / Fold change vs veh, LMF1 / RFU, IPO11 / Fold change vs veh, IPO11 / RFU, DFFB / Fold change vs veh, DFFB / RFU, FOXP1 / Fold change vs veh, FOXP1 / RFU, CARD8 / Fold change vs veh, CARD8 / RFU, STRN3 / Fold change vs veh, STRN3 / RFU, ADK / Fold change vs veh, ADK / RFU, RASSF2 / Fold change vs veh, RASSF2 / RFU, WIPF1 / Fold change vs veh, WIPF1 / RFU, LARP1B / Fold change vs veh, LARP1B / RFU, RASA1 / Fold change vs veh, RASA1 / RFU, RB1 / Fold change vs veh, RB1 / RFU, PPFIA1 / Fold change vs veh, PPFIA1 / RFU, MAT2A / Fold change vs veh, MAT2A / RFU, CCT5 / Fold change vs veh, CCT5 / RFU, WDR92 / Fold change vs veh, WDR92 / RFU, CUX1 / Fold change vs veh, CUX1 / RFU, TTC7A / Fold change vs veh, TTC7A / RFU, TMEM135 / Fold change vs veh, TMEM135 / RFU, DEPTOR / Fold change vs veh, DEPTOR / RFU, CPM / Fold change vs veh, CPM / RFU, DNAJB6 / Fold change vs veh, DNAJB6 / RFU, CACNA2D3 / Fold change vs veh, CACNA2D3 / RFU, DTX4 / Fold change vs veh, DTX4 / RFU, TFCP2 / Fold change vs veh, TFCP2 / RFU, GMCL1 /// GMCL1P1 / Fold change vs veh, GMCL1 /// GMCL1P1 / RFU, AEBP2 / Fold change vs veh, AEBP2 / RFU, SNHG1 /// SNORD22 /// SNORD25 /// SNORD26 /// SNORD27 /// SNORD28 /// SNORD29 /// SNORD31 / Fold change vs veh, SNHG1 /// SNORD22 /// SNORD25 /// SNORD26 /// SNORD27 /// SNORD28 /// SNORD29 /// SNORD31 / Fold change (Aza/veh), C12orf56 (ProbeSet 11735607_a_at) / Fold change (ACY-1035/veh), C12orf56 (ProbeSet 11735607_a_at) / Fold change (Aza/veh), FGFR1OP (ProbeSet 11751329_s_at) / Fold change (ACY-1035/veh), FGFR1OP (ProbeSet 11751329_s_at) / Fold change (Aza/veh), VPS36 (ProbeSet 11739960_a_at) / Fold change (ACY-1035/veh), VPS36 (ProbeSet 11739960_a_at) / RFU SYPL1 (11715823_x_at) / Fold change /veh SYPL1 (11715823_x_at) / RFU IGFBP7 (11715501_s_at) / Fold change /veh IGFBP7 (11715501_s_at) / RFU REEP3 (11722064_at) / Fold change /veh REEP3 (11722064_at) / RFU IGLL1 (11728026_x_at) / Fold change /veh IGLL1 (11728026_x_at): dose or concentration left out as unconfirmed
Conditions: MV-4-11 cells, 48 hours

## Nc1ncn([C@@H]2O[C@H](CO)[C@@H](O)[C@H]2O)c(=O)n1 [azacitidine]
  Fold change /veh PRB3 (11715151_x_at): 0.94
